Laboratory results taken from US20240000795A1, “METHODS AND COMPOSITIONS RELATING TO CONTROLLING PSYCHEDELIC EFFECTS WITH SEROTONIN RECEPTOR MODULATORS” (Terran Biosciences Inc., priority 2022, published 2024).
“Also recorded” adds a separate entry of the source.

Legend:
5-HT2A receptors [1] = target: T1, 5-HT2A receptors (Mus musculus, UniProt P35363); experiment: LSD-induced head twitch response in mice, 5-HT2A antagonist given i.v. after LSD; assay type: in vivo, C57BL/6J mice; parameters: widely used to explore the effect of treatments on 5-HT2A receptors in vivo; from tissue; host or cells: whole living male C57BL/6J mice (behavioural read-out); settings: for head-twitch response (cumulative head-twitches): LSD 0.32 mg/kg i.p., monitored until 40 min after agonist dosing; for Result (LSD Combinations tested, summary): summary of Examples 1-17, antagonist administered after LSD
T1 sequence (P35363 whole entry): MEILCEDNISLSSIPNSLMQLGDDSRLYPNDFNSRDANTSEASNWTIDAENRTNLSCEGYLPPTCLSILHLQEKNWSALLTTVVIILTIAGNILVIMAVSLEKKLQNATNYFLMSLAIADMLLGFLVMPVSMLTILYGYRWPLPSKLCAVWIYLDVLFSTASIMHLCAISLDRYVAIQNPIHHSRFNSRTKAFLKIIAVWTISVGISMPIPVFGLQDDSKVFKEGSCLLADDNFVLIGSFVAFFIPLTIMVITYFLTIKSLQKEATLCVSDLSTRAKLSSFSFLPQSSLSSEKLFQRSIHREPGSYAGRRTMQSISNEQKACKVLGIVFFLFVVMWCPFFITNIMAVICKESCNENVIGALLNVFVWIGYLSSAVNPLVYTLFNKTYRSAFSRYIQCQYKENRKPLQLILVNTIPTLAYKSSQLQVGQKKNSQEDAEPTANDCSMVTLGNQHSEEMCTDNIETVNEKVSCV
Source text: (§1) See, Keller and Umbreit, Science, 1956, 124: 723). […] The head-shake response is elicited by a wide variety of known hallucinogens such as LSD, psilocybin, psilocin, N,N-dimethyltryptamine (DMT), and mescaline as well as serotonin-releasing agents and direct 5-HT2 agonists. See, Canal and Morgan, Drug Test Anal., 2012, 4, 556-576 2012. 2,5-dimethoxy-4-iodoamphetamine (DOI) has also been reported to elicit head shakes in rats (see Amt and Hyttel Eur. J. Pharmacol., 1989, 161:45; also see Kennett et al., Br. J. Pharmacol., 1994, 111: 797-802) and head-twitches in mice (see Darmani et al., Pharmacol. Biochem. Behav., 1990, 36: […]), both of which were blocked by administration of the fairly selective 5-HT2A antagonist ketanserin. Later studies have confirmed 5-HT2A receptors are the primary, direct mediators of the response and that the headshake response in rats is essentially the same as head-twitches in mice, at least in regards to similarity in appearance and 5-HT2A receptor dependence. See, Canal and Morgan, Drug Test Anal., 2012, 4, 556-576 2012.
Male C57BL/6J mice (approximately 25 g) was group housed in stock room B20D of the Saretius animal at the University of Reading. […]
(§2) At T=−60 min, C57BL/6J mice were individually housed into transparent observation cages with bedding removed and left to habituate. At T=−2 min, mice were placed into heated cages at 40° C. At T=0 h, groups of 3 mice were dosed intraperitoneally with LSD (0.32 mg/kg). Following dosing, mice were replaced into the heated cages and head-twitch responses continuously scored for 8 min. After 8 min, mice were intravenously dosed via the lateral tail vein with either vehicle 1 (saline) or volinanserin 1 mg/kg in 5 mL/kg dosing volumes. Mice were replaced into the observation cages and head twitch behavior were monitored until 40 min after agonist dosing. Cumulative head-twitch behavior was measured every 2 minutes until 40 minutes after agonist dosing.
At T=−60 min, C57BL/6J mice were individually housed into transparent observation cages with bedding removed and left to habituate. At T=−2 min, mice were placed into heated cages at 40° C. At T=0 h, groups of 3 mice were dosed intraperitoneally with LSD (0.32 mg/kg).

5-HT2A receptors [2] = target: T1, 5-HT2A receptors; experiment: Psilocybin-induced head twitch response in mice, 5-HT2A antagonist given i.v. after psilocybin; assay type: in vivo, C57BL/6J mice; parameters: widely used to explore the effect of treatments on 5-HT2A receptors in vivo; from tissue; host or cells: whole living male C57BL/6J mice (behavioural read-out); settings: for head-twitch response (cumulative head-twitches): psilocybin 2 mg/kg i.p., monitored until 40 min after agonist dosing; for Result (Psilocybin Combinations tested, summary): summary of Examples 1-17
Source text: as §1
Male C57BL/6J mice (approximately 25 g) was group housed in stock room B20D of the Saretius animal at the University of Reading. Animals was maintained under a 12 h light/dark cycle, at 23° C. with humidity controlled
as §2, with “T=−3” for “T=−2”, “psilocybin (2” for “LSD (0.32”, “7” for “8”, “head-twitches were” for “head-twitch behavior was”
as §2, with “At T=−3” for “At T=−2”, “with psilocybin (2” for “with LSD (0.32”, “for 7” for “for 8”, “min. […]” for “min. After 8 min, mice were intravenously dosed via the lateral tail vein with either vehicle 1 (saline) or volinanserin 1 mg/kg in 5 mL/kg dosing volumes.”, “behavior was” for “behavior were”
as §2, with “At T=−3” for “At T=−2”, “with psilocybin (2” for “with LSD (0.32”, “for 7” for “for 8”, “min. […]” for “min. After 8 min, mice were intravenously dosed via the lateral tail vein with either vehicle 1 (saline) or volinanserin 1 mg/kg in 5 mL/kg dosing volumes.”, “behavior was” for “behavior were”
as §2, with “At T=−3” for “At T=−2”, “with psilocybin (2” for “with LSD (0.32”, “for 7” for “for 8”, “min. […]” for “min. After 8 min, mice were intravenously dosed via the lateral tail vein with either vehicle 1 (saline) or volinanserin 1 mg/kg in 5 mL/kg dosing volumes.”, “behavior was” for “behavior were”

[3] = background; compared with a therapy session of up to several hours; cited from earlier work
5-HT2A receptors [4] = target: T1, 5-HT2A receptors; parameters: head-twitches in mice (see Darmani et al., Pharmacol. Biochem. Behav., 1990); host or cells: living mice (cited study); settings: mice; 2,5-dimethoxy-4-iodoamphetamine (DOI); cited from earlier work
5-HT2A receptors [5] = target: T2, 5-HT2A receptors (Rattus norvegicus, UniProt P14842); settings: rats; 2,5-dimethoxy-4-iodoamphetamine (DOI); cited from earlier work
T2 construct: has also been reported to elicit head shakes in rats; host or cells: living rats (cited studies)
T2 sequence (P14842 whole entry): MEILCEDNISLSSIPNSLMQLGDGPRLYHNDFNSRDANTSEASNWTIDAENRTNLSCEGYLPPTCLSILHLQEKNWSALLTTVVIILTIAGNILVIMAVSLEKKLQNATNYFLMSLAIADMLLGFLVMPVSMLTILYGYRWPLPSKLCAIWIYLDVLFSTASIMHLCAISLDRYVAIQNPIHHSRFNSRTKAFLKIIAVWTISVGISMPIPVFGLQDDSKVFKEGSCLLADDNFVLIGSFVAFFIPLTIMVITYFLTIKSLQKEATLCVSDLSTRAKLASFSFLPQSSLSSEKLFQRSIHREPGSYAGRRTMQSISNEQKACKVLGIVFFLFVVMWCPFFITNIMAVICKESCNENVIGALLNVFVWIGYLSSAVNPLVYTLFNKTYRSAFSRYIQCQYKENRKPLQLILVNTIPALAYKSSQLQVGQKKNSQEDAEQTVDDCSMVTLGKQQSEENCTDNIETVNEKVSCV

[6] = system: psilocybin induced head twitches in mice; settings: psilocybin 2 mg/kg i.p.; quetiapine 1 mg/kg i.v. after T=7 minutes; cumulative head twitches until 40 minutes
Experimental: Mice were dosed intraperitoneally with psilocybin (2 mg/kg) and head-twitch responses were continuously scored for 7 minutes. […] Cumulative head-twitch behavior was measured every 2 minutes until 40 minutes after agonist dosing.

[7] = antagonist 1 mg/kg i.v. after 8 min
[8] = antagonist 1 mg/kg i.v. after 7 min
[9] = antagonist 4 mg/kg i.v. after 7 min
[10] = antagonist administered after psilocybin

COc1ccc(NC(=O)Nc2ccc(F)cc2F)cc1-c1c(Br)cnn1C [nelotanserin]
head-twitch response (cumulative head-twitches) (5-HT2A receptors [1]; [7]): partially suppressed | Result (LSD Combinations tested, summary) (5-HT2A receptors [1]): partial suppression | Result (LSD Combinations tested, summary) (5-HT2A receptors [1]; listed as Nelotanserin): Partial suppression of head twitch | head-twitch response (cumulative head-twitches) (5-HT2A receptors [2]; [8]): partially suppressed | head-twitch response (cumulative head-twitches) (5-HT2A receptors [2]; [9]): completely suppressed; also recorded: completed suppressed | Result (Psilocybin Combinations tested, summary) (5-HT2A receptors [2]; [10]): partial suppression | Result (Psilocybin Combinations tested, summary) (5-HT2A receptors [2]; antagonist administered after psilocybin, listed as Nelotanserin): Partial suppression of head twitch, | Result (Psilocybin Combinations tested, summary) (5-HT2A receptors [2]; at high dose): full suppression at high dose

N#Cc1c[nH]c2c(C(=O)N3CCN(CCc4ccc(F)cc4)CC3)cccc12 [pruvanserin]
head-twitch response (cumulative head-twitches) (5-HT2A receptors [1]; [7]): completely suppressed | Result (LSD Combinations tested, summary) (5-HT2A receptors [1]): full suppression | Result (LSD Combinations tested, summary) (5-HT2A receptors [1]; listed as Pruvanserin): Full suppression of head twitch | head-twitch response (cumulative head-twitches) (5-HT2A receptors [2]; [8]): completely suppressed | Result (Psilocybin Combinations tested, summary) (5-HT2A receptors [2]; [10]): full ending | Result (Psilocybin Combinations tested, summary) (5-HT2A receptors [2]; antagonist administered after psilocybin, listed as Pruvanserin): Full suppression of head twitch

CCN(CC)C(=O)[C@@H]1C=C2c3cccc4[nH]cc(c34)C[C@H]2N(C)C1 [LSD]
duration of effects [3]: 12 h

COc1cccc([C@H](O)C2CCN(CCc3ccc(F)cc3)CC2)c1OC [volinanserin]
head-twitch response (cumulative head-twitches) (5-HT2A receptors [1]; antagonist 1 mg/kg i.v. after 5 min): completely suppressed | head-twitch response (cumulative head-twitches) (5-HT2A receptors [1]; [7]): completely suppressed | head-twitch response (cumulative head-twitches) (5-HT2A receptors [1]; antagonist 1 mg/kg i.v. after 10 min): completely suppressed | Result (LSD Combinations tested, summary) (5-HT2A receptors [1]): full suppression | head-twitch response (cumulative head-twitches) (5-HT2A receptors [2]; [8]): completely suppressed | Result (Psilocybin Combinations tested, summary) (5-HT2A receptors [2]; [10]): full ending | Result (Psilocybin Combinations tested, summary) (5-HT2A receptors [2]; antagonist administered after psilocybin, listed as Volinanserin): Full suppression of head twitch

O=c1[nH]c2ccccc2n1CCN1CCN(c2cccc(C(F)(F)F)c2)CC1 [flibanserin]
head-twitch response (cumulative head-twitches) (5-HT2A receptors [1]; [7]): partially suppressed | head-twitch response (cumulative head-twitches) (5-HT2A receptors [1]; antagonist 4 mg/kg i.v. after 8 min): partially suppressed | Result (LSD Combinations tested, summary) (5-HT2A receptors [1]): partial suppression | Result (LSD Combinations tested, summary) (5-HT2A receptors [1]; listed as Flibanserin): Partial suppression of head twitch | head-twitch response (cumulative head-twitches) (5-HT2A receptors [2]; [8]): partially suppressed | head-twitch response (cumulative head-twitches) (5-HT2A receptors [2]; [9]): partially suppressed | Result (Psilocybin Combinations tested, summary) (5-HT2A receptors [2]; [10]): partial suppression | Result (Psilocybin Combinations tested, summary) (5-HT2A receptors [2]; antagonist administered after psilocybin, listed as Flibanserin): Partial suppression of head twitch

O=C(c1ccc(F)cc1)C1CCN(CCn2c(=O)[nH]c3ccccc3c2=O)CC1 [ketanserin]
DOI-elicited head-twitches (5-HT2A receptors [4]): blocked | head-twitch response (cumulative head-twitches) (5-HT2A receptors [1]; antagonist 2 mg/kg i.v. after 8 min): completely suppressed | DOI-elicited head shakes (5-HT2A receptors [5]): blocked | head-twitch response (cumulative head-twitches) (5-HT2A receptors [2]; antagonist 2 mg/kg i.v. after 7 min): completely suppressed

OCCOCCN1CCN(C2=Nc3ccccc3Sc3ccccc32)CC1 [quetiapine]
head-twitch response [6]: completely suppressed

Cc1nc2sccn2c(=O)c1CCN1CCC(=C(c2ccc(F)cc2)c2ccc(F)cc2)CC1 [ritanserin]
head-twitch response (cumulative head-twitches) (5-HT2A receptors [1]; [7]): partially suppressed | Result (LSD Combinations tested, summary) (5-HT2A receptors [1]): full suppression | Result (LSD Combinations tested, summary) (5-HT2A receptors [1]; listed as Ritanserin): Full suppression of head twitch | head-twitch response (cumulative head-twitches) (5-HT2A receptors [2]; [8]): completely suppressed | Result (Psilocybin Combinations tested, summary) (5-HT2A receptors [2]; [10]): full ending | Result (Psilocybin Combinations tested, summary) (5-HT2A receptors [2]; antagonist administered after psilocybin, listed as Ritanserin): Full suppression of head twitch
